Measured values from patent publication US12064482B2, “Triplet-triplet energy transfer with light excitation at long wavelengths and methods thereof” (THE UNIVERSITY OF HONG KONG, priority 2018, dated 2024).

Tests used:
[1] = Photocleavage of BODIPY-CAB and photorelease of CAB in solution, determined by HPLC; type: physicochemical
Description: FIG. 4. HPLC spectra of CAB (10^−4 M), PtTPBP (10^−5 M), BODIPY-CAB (10^−4 M), BODIPY-CAB (10^−4 M) with 530 nm irradiation (44 mW/cm^2) for 15 s under N2 atmosphere, the mixture of BODIPY-CAB (10^−4 M) and PtTPBP (10^−5 M) with 625 nm irradiation (44 mW/cm^2) for 15 s under N2 atmosphere, the mixture of BODIPY-CAB (10^−4 M) and PtTPBP (10^−5 M) without irradiation under N2 atmosphere, and BODIPY-CAB (10^−4 M) with 625 nm irradiation (44 mW/cm^2) for 15 s under N2 atmosphere. The detection wavelength was 260 nm. A small amount of toluene, whose peak was located at ˜8.7 min, was used to increase the solubility of PtTPBP. The yellow arrows indicate the signal of CAB; the red arrows indicate the signal of BODIPY-CAB; and the green arrows indicate the signal of PtTPBP.
FIG. 5. Photocleavage rate of the prodrug (BODIPY-CAB), as determined by HPLC (detected at 540 nm), after irradiation with 625 nm LED light at 44 mW/cm^2. The mixed solution of BODIPY-CAB (10^−4 M) and PtTPBP (10^−5 M, […] or 0 M) was protected under nitrogen (N2) or exposed in the air, and then irradiated for different time periods in the mixed solvents of dichloromethane (DCM) and methanol (1:9, v/v). The solution (50 μL) was then analyzed by HPLC to measure the concentration of BODIPY-CAB. Data are means±SD, n=3.
FIG. 6. Photorelease of the free drug (CAB), as determined by HPLC (detected at 260 nm), after irradiation with 625 nm LED light at 44 mW/cm^2. The mixed solution of BODIPY-CAB (10^−4 M) and PtTPBP ([…], 5×10^−6 M, 10^−6 M or 0 M) was protected under nitrogen (N2) or exposed in the air, and then irradiated for different time periods in the mixed solvents of dichloromethane (DCM) and methanol (1:9, v/v). The solution (50 μL) was then analyzed by HPLC to measure the concentration of CAB. Data are means f SD, n=3.
The intermediates and the final product were characterized by proton nuclear magnetic resonance (^1H NMR) spectra (FIG. 12-FIG. 15). The absorption and emission peaks of BODIPY-CAB were located at the wavelength of 543 nm and 567 nm, respectively (FIG. 3). To confirm whether the BODIPY prodrug could be sensitized by PtTPBP and could further be cleaved to release the drug, high performance liquid chromatography (HPLC) was utilized to monitor the generation of CAB. […] After addition of photosensitizer PtTPBP, the mixture solution of PtTPBP and BODIPY-CAB was irradiated with 625 nm light for 15 sec.
Furthermore, the photocleavage of BODIPY-CAB was investigated with different ratios of BODIPY-CAB and PtTPBP upon 625 nm light irradiation. […] When the concentration of photosensitizer was decreased, the photocleavage of BODIPY-CAB slowed down. […] Moreover, as O2 can quench the triplet excited state of PtTPBP, the prodrug cannot be cleaved efficiently in the presence of O2.

[2] = literature ref. [10]; cited from earlier work

Row | Structure (SMILES) | generation of CAB (HPLC) ([1]; 530 nm (44 mW/cm^2), 15 s, no photosensitizer, N2) | generation of CAB (HPLC) ([1]; 625 nm (44 mW/cm^2), 15 s, with PtTPBP, N2) | generation of CAB (HPLC) ([1]; 625 nm, 15 s, in the absence of PtTPBP, N2) | rate of photocleavage and photorelease ([1]; 625 nm, with PtTPBP, in the air atmosphere (O2)) | prodrug remained in the solution ([1]; BODIPY-CAB:PtTPBP 100:1, 625 nm LED 44 mW/cm^2, 30 s, N2) | photocleavage of the prodrug ([1]; BODIPY-CAB:PtTPBP 100:10, 625 nm LED 44 mW/cm^2, 15 s, N2) | free drug CAB released ([1]; BODIPY-CAB:PtTPBP 100:10, 625 nm LED 44 mW/cm^2, 15 s, N2, DCM/methanol 1:9) | generation of CAB (HPLC) ([1]; mixture with PtTPBP not irradiated, N2) | cytotoxicity [2]
1 | CC1=C(I)C(C)=[N+]2C1=C(COC(=O)CCCc1ccc(N(CCCl)CCCl)cc1)c1c(C)c(I)c(C)n1[B-]2(C)C [BODIPY-CAB] | leads to the release of CAB | new peak located at ˜11.2 min was appeared | did not generate CAB | dramatically deceased rate of photocleavage and photorelease | 59.6% | almost cleaved completely | 41.7% | did not generate CAB | –
2 | [Pt+2].c1ccc(-c2c3nc(c(-c4ccccc4)c4[n-]c(c(-c5ccccc5)c5nc(c(-c6ccccc6)c6[n-]c2c2ccccc62)-c2ccccc2-5)c2ccccc42)-c2ccccc2-3)cc1 [PtTPBP, platinum (II) tetraphenyltetrabenzoporphyrin] | – | – | – | – | – | – | – | – | minimal
